Source: US11891628B2, “Method for biomimetic culture of urothelial cells and uses thereof” (China Medical University, priority 2018, dated 2024)

How the values were obtained:
[1] = system: BBN-induced bladder tumor; test: BBN-induced bladder tumor mouse model; format: in vivo, mice
Protocol: FIG. 9. […] Tumor-bearing mice were treated according to the experimental scheme (A). Representative photographs of the gross tumors from mice with different treatments (B). Tumor weights of the different treatment groups (C) (mean±SD, at least 9 mice from 3 independent experiments). Representative H&E stained images of tumors of different treatment groups (D). Histograms of the pathological analysis for the proportions of hyperplastic and neoplastic changes in bladder H&E stained section of mice with different treatments (E). *p<0.05; **p<0.01 by Student's t test.
For BBN-induced bladder tumor formation, a 0.05% concentration of BBN (TCI America, Portland, OR) was dissolved in drinking water, and BBN-containing water in a dark bottle was provided to 8-10 week old female C57BL/6 mice ad libitum for 10-20 weeks until hematuria score is over 2+ (Arkray Aution Sticks urine strip) as a sign of bladder tumor formation. […]
To test the anti-tumor effects of intravesical xenogeneic cell therapy in combination with chemotherapeutic agents in delaying tumor progression, BBN-induced tumor mouse model, which simulates the human bladder tumorigenesis from hyperplasia, carcinoma in situ (CIS) to invasive carcinoma was used. […] The progression of BBN-induced bladder tumors in the treatment groups and control group was assessed by macroscopic and histopathological examination from harvested bladders. […]

[2] = system: MBT-2-luc orthotopic graft bladder tumor; test: Orthotopic MBT-2-luc graft bladder tumor mouse model
Protocol: The tumor bearing mice were enrolled when tumor bioluminescent signal reached 10^5 total plex and treated according to the treatment scheme (A).
Tumors from mice of different treatment groups were harvested, processed and sectioned for tumor cell Ki-67 IHC and TUNEL assay. Tumor sections were evaluated for cell proliferation 45 with Ki-67 IHC staining (A). Ki-67 positive cells on tumor sections were counted and quantified from mice of 3 independent experiments (B). Tumor sections were stained with TUNEL (FITC) and observed under a fluorescent microscope (C). DAPI was used for nuclear staining. TUNEL positive cells on tumor sections were counted and quantified from mice of 3 independent experiments (D). Values are expressed as mean±standard error of the mean (n=3). *p<0.05; **p<0.01; ***p<0.001, by Student's t test. Scale bar, 50 μm.
Tumors from mice given different treatments were analyzed by IHC for lymphocyte and NK cell infiltration. Representative images of anti-CD4 (A), CD8 (B) and NKG2D (C) IHC staining on tumor sections. Quantification of CD4+ T lymphocytes (D), CD8+T lymphocytes (E) and NKG2D+ NK cells (F) in tumors for each treatment group by counting the positive cells in four randomly selected HPFs among 3 mice in each group, and data were expressed as the means±SD. Error bars represent SD. *p<0.05; **p<0.01; ***p<0.001, by Student's t test.
Female C3H/HeJ 9-week-old mice were used to establish the intramural orthotopic model. MBT-2 murine urothelial carcinoma cells stably expressing luciferase gene (MBT-2-luc) were intramuscularly injected to mouse bladder walls and capture tumor imaged by Xenogen IVIS 200 once per week. The mice are divided control and experiment groups when tumors are reached around 1×10^5 p/s total flux in bioluminescence imaging. The tumor bearing mice were divided into 4 treatment groups: (i). Vehicle control, (ii). Xenogeneic urothelial cell: intravesical of instillation xenogeneic urothelial cells (1×10^6 cells), once a week, day 3 for 4 weeks, (iii). […] A 24-gauge catheter is introduced into the lumen of the bladder through the urethra. Xenogeneic urothelial cells, 1×10^6 in a 100 μl suspension is then injected into the bladder. To prevent voiding of the xenogeneic urothelial cells, the catheter is held in place for at least 40 minutes with the injection syringe attached. The catheter is removed before the mouse recovered from anesthesia. The responses of mice are analyzed on BLI total flux intensity changes from the baseline.

[3] = IHC on tumor sections, vs vehicle

Gemcitabine plus cisplatin [GC]
tumor weight ([1]; harvested bladders after 4 weeks treatment): significantly reduced
proportion of mice progressed to invasive carcinoma ([1]; histopathological analysis of H&E sections): significantly lower
NKG2D+ NK cell infiltration in tumors [2, 3]: not observed
tumor CD4+ T cell infiltration [2, 3]: increased
tumor CD8+ T cell infiltration [2, 3]: increased
tumor growth ([2]; bioluminescence, vs vehicle-treated groups, 4 weeks treatment): significantly decreased
